Read-outs that look alike come from different tables or passages of the source.
Legend:
[1] = Absorption and fluorescence emission spectra in DMF; assay type: physicochemical; details: in DMF
Description: (§1) An absorption spectrum of 2.475 mL of solvent (water, DMF, or PBS) was taken (i.e., absorption spectrum of baseline); then, 25 μL of stock solution was added to reach the final concentration of 1 μM in the cuvette, and the absorption and emission spectra were taken. Baseline of the solvent was subtracted from the obtained absorption spectrum to get the final absorption spectrum of the sample.

[2] = Fluorescence quantum yield, comparative method; assay type: physicochemical; details: in DMF; ZnPc as reference
How it was run: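 ΦF determined by the comparative method against ZnPc (ΦF 0.32 in THF), using integrated emission area, absorbance at the excitation wavelength and solvent refractive index. Q-band absorbance kept below 0.05; estimated error ± 15%.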

[3] = Fluorescence lifetime in DMF; assay type: physicochemical
Description: 1 Photophysical Data of Investigated Derivatives in DMF ^a | column: τF1/ns; τF2/ns

[4] = Log P, partition between n-octanol and PBS; assay type: physicochemical; details: partition coefficient between 1-octanol and PBS
How it was run: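 Sample from 100 μM stock added to equal volumes of n-octanol and PBS, vortexed 5 min at rt, centrifuged. Each layer diluted into DMF and emission spectra recorded; log P taken as log of octanol/PBS integrated fluorescence ratio, mean of triplicates.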

[5] = tested on: MCF-7 (human breast adenocarcinoma); assay: Photodynamic activity (phototoxicity, neutral red uptake) on MCF-7; assay type: cell-based; details: for EC50: 12 h incubation, Xe-lamp 15 min, λ > 570 nm, 11.2 J/cm^2, mean ± SD, t.w. = this work
Description: (§2) Detailed in vitro studies involving subcellular localization and determination of the EC50 in three different cell lines (human cervical carcinoma–HeLa, human breast adenocarcinoma–MCF-7, and human skin melanoma–SK-MEL-28) were performed. A broadband light source (ozone-free 450 W Xe-lamp, Newport) equipped with the long-pass filter Schott OG570 was used (12.4 mW/cm^2, 15 min, 11.2 J/cm^2).
(§3) For the cytotoxicity experiments (phototoxicity), cells were seeded at 100 μL per well into 96-well plates (TPP, Switzerland) at a density of 7.5 × 10^3 (HeLa) or 1.0 × 10^4 (MCF-7 and SK-MEL-28) cells per well. Cells were left to grow for 24 h (until they reached confluency) in a controlled environment of a CO2 incubator (37 °C, 5% CO2 atmosphere, constant high humidity). Subsequently, studied compounds were added in a wide concentration range and incubated with the cells for 12 h. Cells were washed; fresh cell culture medium was added, and the cells were irradiated using a 450 W Xe lamp (Newport, USA). The lamp was equipped with a long pass filter (Newport OG570) and an 8 cm water filter (λ > 570 nm, 12.4 mW/cm^2, 15 min, 11.2 J/cm^2). Cellular viability was assessed after an additional 24 h by the neutral red (NR; Sigma, Merck, USA) uptake assay. At least three independent experiments, each in triplicate, were performed. The soluble NR was measured at λ = 540 nm using a Tecan Infinite 200 M plate reader (Tecan, Austria). The viability of each experimental group was expressed as the percentage of the untreated cells (100% viability) after subtraction of the signal from cells treated with a lethal dose of hydrogen peroxide (0% viability). […] EC50 values were calculated, and graphs were created by using GraphPad Prism 10.3.1 (Graph Pad software, USA).

[6] = tested on: SK-MEL-28 (human skin melanoma); assay: Photodynamic activity (phototoxicity, neutral red uptake) on SK-MEL-28; assay type: cell-based; details: 12 h incubation, Xe-lamp 15 min, λ > 570 nm, 11.2 J/cm^2, mean ± SD, t.w. = this work
Description: as §2, §3

[7] = ref number not given, cited from earlier work; for ΦΔ(EtOH): in EtOH
[8] = tested on: HeLa (human cervical carcinoma); details: 12 h incubation, Xe-lamp 15 min, λ > 570 nm, 11.2 J/cm^2; mean ± SD; determined previously under the same conditions at the same workplace and published; ref number not given; read-out: EC50 (nM) HeLa; cited from earlier work
[9] = Quantum yield of singlet oxygen production, comparative method with DPBF scavenger; assay type: physicochemical; details: in DMF, ZnPc as reference
How it was run: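 Dye added from 100 μM DMF stock (or DMF/water, water); irradiated under stirring with xenon lamp through water filter and OG530 cut-off (>523 nm). DPBF decay followed at 415 nm; ΦΔ from ln(A0/At) slopes versus reference, normalised to absorbed light summed over 523–850 nm; triplicate means, ±10% error.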

[10] = Aggregation / monomerization in aqueous media (spectra in water and PBS); assay type: physicochemical; details: 1 μM
Description: as §1

[11] = tested on: MCF-7 (human breast adenocarcinoma); set-up: method as in number not printed in Table 2; details: 12 h incubation, Xe-lamp 15 min, λ > 570 nm, 11.2 J/cm^2; mean ± SD; determined previously under the same conditions at the same workplace and published; ref number not given; cited from earlier work
[12] = tested on: HeLa (human cervical carcinoma); assay: Photodynamic activity (phototoxicity, neutral red uptake) on HeLa; assay type: cell-based; details: for EC50: 12 h incubation, Xe-lamp 15 min, λ > 570 nm, 11.2 J/cm^2, mean ± SD, t.w. = this work
Description: as §2, §3

[13] = biological target: bovine serum albumin (BSA) (Bos taurus, UniProt P02769); assay: Interaction with bovine serum albumin (absorption and emission spectra in PBS); assay type: binding; details: 1 μM Pc in PBS, BSA 17.5, 35 and 100 μM
Sequence of bovine serum albumin (BSA) (P02769 25-607): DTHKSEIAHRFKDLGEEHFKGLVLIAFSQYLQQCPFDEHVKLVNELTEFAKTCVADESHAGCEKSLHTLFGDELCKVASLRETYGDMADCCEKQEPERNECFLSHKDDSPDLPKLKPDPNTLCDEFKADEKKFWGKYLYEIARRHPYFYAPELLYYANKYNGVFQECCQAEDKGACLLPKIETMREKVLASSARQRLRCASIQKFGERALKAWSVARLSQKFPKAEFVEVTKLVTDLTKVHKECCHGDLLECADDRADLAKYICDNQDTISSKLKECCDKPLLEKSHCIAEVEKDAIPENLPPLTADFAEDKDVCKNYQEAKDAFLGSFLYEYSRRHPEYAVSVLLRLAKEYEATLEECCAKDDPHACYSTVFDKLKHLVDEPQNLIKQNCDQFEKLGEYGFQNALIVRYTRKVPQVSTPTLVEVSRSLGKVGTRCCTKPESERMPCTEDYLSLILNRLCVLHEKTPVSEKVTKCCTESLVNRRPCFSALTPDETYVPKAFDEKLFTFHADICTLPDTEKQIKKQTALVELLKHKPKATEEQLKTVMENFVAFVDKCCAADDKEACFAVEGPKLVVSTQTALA

Compound	λA, absorption maximum in the Q-band [1] [nm]	λF, fluorescence emission maximum [1] [nm]	ΦF, fluorescence quantum yield [2]	τF1, fluorescence lifetime (relative amplitude in brackets) [3]	Log P [4]	EC50 [5] [nM]	EC50 [6] [nM]	ΦΔ(EtOH) [7]	EC50 [8] [nM]	ε, extinction coefficient [1]	ΦΔ, quantum yield of singlet oxygen production [9]	EC50 [11] [nM]	τF2, fluorescence lifetime (relative amplitude in brackets) [3]	also measured
temoporfin [reference compound]	651	656	0.24	9.66 ns	1.40	210 ± 74	103 ± 17	0.51–0.67	45 ± 7					
Cc1cc(Cn2cc[n+](C)c2)c(Oc2cc3c(cc2Oc2c(Cn4cc[n+](C)c4)cc(C)cc2Cn2cc[n+](C)c2)C2=Nc4c5ccccc5c5[n]4[Zn][n]4c(c6ccccc6c4=NC3=N2)=NC2=NC(=N5)c3ccccc32)c(Cn2cc[n+](C)c2)c1.[I-].[I-].[I-].[I-] [C3Zn]	673	682	0.19		–0.84		40 ± 4		48 ± 19	177 190 M^–1cm^–1	0.53	21 ± 8		aggregation / monomeric state [10]: monomeric in DMF but are aggregated in PBS
protoporhyrin IX [PpIX, reference compound]	630	634	0.12		1.06	5700 ± 800	6200 ± 300	0.51–0.67						EC50 [12]: 5500 ± 600 nM
C=Cc1c(C)c2cc3nc(cc4[nH]c(cc5nc(cc1[nH]2)C(C)=C5CCC(=O)O)c(CCC(=O)OC)c4C)[C@@]1(C)C3=CC=C(C(=O)OC)[C@H]1C(=O)OC [verteporfin, reference compound]	690	696	0.18	6.05 ns				0.51–0.67	36 ± 10					logP ([4]; n-octanol/PBS buffer): 2.51; EC50 ([5]; Homo sapiens, MCF7, light or radiation study): 33 ± 3 nM; EC50 ([6]; Homo sapiens, SK-MEL-28, light or radiation study): 21 ± 3 nM
O=C([O-])c1cc(Oc2cc3c(cc2Oc2cc(C(=O)[O-])cc(C(=O)[O-])c2)C2=Nc4c5ccccc5c5[n]4[Zn][n]4c(c6ccccc6c4=NC3=N2)=NC2=NC(=N5)c3ccccc32)cc(C(=O)[O-])c1.[Na+].[Na+].[Na+].[Na+] [A1Zn]		682	0.035	0.44 (15%) ns	–2.70		530 ± 30		290 ± 78		0.26	453 ± 26	2.51 (85%) ns	Interaction with BSA: disaggregation/monomerization and changes in absorption and fluorescence emission spectra [13]: complete; fold higher photodynamic activity vs symmetrical hydrophilic counterparts ([12]; HeLa, unsymmetrical anionic A1Zn, A2Zn vs A3Zn, A4Zn): ~21
O=C([O-])c1c(Cl)c(Cl)c(Cl)c(Cl)c1-c1c2cc(I)c(=O)c(I)c-2oc2c(I)c([O-])c(I)cc12.[Na+].[Na+] [Rose Bengal]														ΦΔ of the reference standard ([7]; in DMF): 0.47
Cc1cc(Cn2cc[n+](C)c2)c(Oc2cc3c(cc2Oc2c(Cn4cc[n+](C)c4)cc(C)cc2Cn2cc[n+](C)c2)C2=Nc4c5cc(Oc6c(Cn7cc[n+](C)c7)cc(C)cc6Cn6cc[n+](C)c6)c(Oc6c(Cn7cc[n+](C)c7)cc(C)cc6Cn6cc[n+](C)c6)cc5c5[n]4[Zn][n]4c(c6cc(Oc7c(Cn8cc[n+](C)c8)cc(C)cc7Cn7cc[n+](C)c7)c(Oc7c(Cn8cc[n+](C)c8)cc(C)cc7Cn7cc[n+](C)c7)cc6c4=NC4=NC(=N5)c5cc(Oc6c(Cn7cc[n+](C)c7)cc(C)cc6Cn6cc[n+](C)c6)c(Oc6c(Cn7cc[n+](C)c7)cc(C)cc6Cn6cc[n+](C)c6)cc54)=NC3=N2)c(Cn2cc[n+](C)c2)c1.[I-].[I-].[I-].[I-].[I-].[I-].[I-].[I-].[I-].[I-].[I-].[I-].[I-].[I-].[I-].[I-] [C12Zn]	679	687	0.20	0.62 (7%) ns	–2.08		45 ± 7		37 ± 6	244 030 M^–1cm^–1	0.48	11 ± 3	2.23 (93%) ns	increase in activity of C12Zn in comparison with C3Zn (fold) ([12]; HeLa cells): 1.3; increase in activity of C12Zn in comparison with C3Zn (fold) ([5]; MCF-7 cells): 2
C[n+]1cccc(Oc2cc3c(cc2Oc2ccc[n+](C)c2)C2=Nc4c5cc(Oc6ccc[n+](C)c6)c(Oc6ccc[n+](C)c6)cc5c5[n]4[Zn][n]4c(c6cc(Oc7ccc[n+](C)c7)c(Oc7ccc[n+](C)c7)cc6c4=NC4=NC(=N5)c5cc(Oc6ccc[n+](C)c6)c(Oc6ccc[n+](C)c6)cc54)=NC3=N2)c1.[I-].[I-].[I-].[I-].[I-].[I-].[I-].[I-] [C6Zn]	681	683	0.001	0.07 (3%) ns	–2.59	110 ± 30	150 ± 50			41 730 M^–1cm^–1	0.02		2.84 (97%) ns	aggregation / monomeric state [10]: did not sufficiently suppress aggregation; EC50 [12]: 58 ± 20 nM
